Experimental data: PMC4604765, “Eye drop delivery of pigment epithelium-derived factor-34 promotes retinal ganglion cell neuroprotection and axon regeneration” (Molecular and Cellular Neurosciences, 2015)
Where two headings read alike, the source gives them in different places. No end group written: not given here.

What was measured:
[1] = test system: βIII-tubulin+ retinal neurons; assay: Neurite outgrowth in mixed adult rat retinal cultures (βIII-tubulin immunocytochemistry); assay type: cell-based
Description: For all in vitro experiments, adult 6–8-week-old female Sprague–Dawley rats weighing 170–220 g were used. Culture experiments included retinal cells treated with: (1), Neurobasal-A (NBA) alone (Control); and equimolar concentrations of (2), 2.16; (3) 5.4; (4), 10.8 and (5), 21.6 pM PEDF-34/-44; and (6), ciliary neurotrophic factor (CNTF: Peprotech, London, UK), as a positive control at an optimal neuroprotective/axogenic concentration of 440.5 pM, established by us previously ([Ahmed et al., 2009; Douglas et al., 2009]). […] All experiments were performed in triplicate and repeated on three independent occasions.
Mixed adult rat retinal cultures containing enriched populations of retinal neurons, including RGCs, were prepared from 6–8-week-old adult female Sprague–Dawley rats, as described previously ([Ahmed et al., 2006b, 2009, 2010; Douglas et al., 2009; Vigneswara et al., 2013]). Briefly, retinal cells were dissociated using a Papain dissociation kit according to the manufacturer's instructions (Worthington Biochemicals, Lakewood, NJ, USA). Retinal cells were plated at a density of 125 × 10^3/well in poly-D-lysine and laminin pre-coated 8-well chamber slides and cultured in NBA supplemented with B27 supplement (all from Invitrogen, Paisley, UK), with appropriate treatments for 4 days at 37 °C and 5% CO2 before fixation in 4% paraformaldehyde diluted in PBS for immunocytochemistry, as described previously ([Vigneswara et al., 2013, 2014]).
Fixed cells were washed in several changes of PBS before permeabilisation and blocking of non-specific antibody sites with PBS containing 3% bovine serum albumin (BSA) and 0.1% Triton X-100 (both from Sigma, Poole, UK). Cells were then incubated with monoclonal anti-βIII-tubulin antibody (1:200 dilution; Sigma) for 1 h at room temperature (RT) to detect retinal neurons and their neurites. Cells were then washed in several changes of PBS and incubated with Alexa 488 anti-mouse IgG (1:400 dilution; Invitrogen) for 1 h at RT. After washing in several changes of PBS and mounting in Vectamount containing DAPI (Vector Laboratories, Peterborough, UK), cells were then viewed using a Zeiss epi-fluorescent microscope equipped with an AxioCam HRc and Axiovision Image capture software (all from Zeiss, Hertfordshire, UK). Immunocytochemistry included controls with primary antibody omitted, to set background levels of nonspecific staining (not shown) before image capture.
The mean number of βIII-tubulin^+ neurons surviving, with neurites and the mean neurite length were quantified as described by us previously ([Vigneswara et al., 2013, 2014]). Briefly, chamber slides were anonymised by a second investigator and βIII-tubulin^+ neuronal soma and neurites quantified in 9 quadrants/well using Axiovision software (Version 4.8; Zeiss) and ImagePro (Version 6.3; Media Cybernetics, Bethesda, MD, USA). Of the 125,000 cells/well plated, the total numbers of neurons in each experiment were determined by βIII-tubulin^+ immunocytochemistry after allowing 30 min for cells to adhere to glass culture slides. This determines the number of neurons plated/well and is used in each experiment to work out the proportion of surviving βIII-tubulin^+ neurons. Neurite outgrowth from at least 180 neurons/condition from the 9 wells was measured, except in control (NBA) cultures, in which a total of 108 neurons were measured.

[2] = single eye drop, ELISA
[3] = test system: retinal ganglion cells (RGCs); assay: RGC survival after optic nerve crush (FluroGold backfilling, retinal wholemounts); assay type: in vivo, rat; settings: weekly intravitreal injection, 2.68 nM versus 1.88 nM, 21 days after ONC
Description: In a separate set of experiments comprising the same treatment groups, 6 rats/treatment (i.e. 12 eyes/optic nerves/treatment) were used to evaluate RGC axon regeneration by immunostaining with growth-associated protein-43 (GAP-43) in the optic nerve.
In further experiments, 12 rats (24 eyes/optic nerves)/treatment received 1.88 nM PEDF-34 eye drops daily. Six rats (12 eyes)/treatment were used to assess RGC survival at 21 days using FG backfilling, whilst the remaining 6 rats (12 eyes/optic nerves)/treatment were used to evaluate RGC axon regeneration at 21 days by GAP-43 immunohistochemistry. […]
Nineteen days after ONC, FG (Cambridge Biosciences, Cambridge, UK) was injected into the optic nerve, between the lamina cribrosa and the ONC site ([Vigneswara et al., 2013, 2014]). […] The identity of individual retinae was anonymised by a second investigator before image capture using a Zeiss epifluorescent microscope and the number of FG^+ RGCs counted in ImagePro Version 6.0 (Media Cybernetics) from captured images of 12 rectangular areas, 3 from each quadrant, placed at radial distances from the centre of the optic disc of the inner (1/6 eccentricity), midperiphery (1/2 eccentricity) and outer retina (5/6 eccentricity). The mean densities of FG^+ RGCs/mm^2 for each retina were determined.

[4] = 5.4 pM (peak), 4 days in culture

## DPFFKVPVNKLAAAVSNFGYDLYRVRSSTSPTTN [PEDF-34]
[1]; [4]
  mean neurite length: 211 ± 23 μm
  mean proportion of βIII-tubulin+ neurons with neurites: 21 ± 2%
[1]; PEDF-34 versus CNTF (440.5 pM)
  fold longer neurites than in CNTF cultures: 2.2 fold
  fold more βIII-tubulin+ neurons with neurites than in CNTF cultures: 10.5 fold
[1]; PEDF-34 versus PEDF-44
  fold longer neurites than in PEDF-44 cultures: 1.7 fold
  fold more βIII-tubulin+ neurons with neurites than in PEDF-44 cultures: 2.3 fold
[1]; PEDF-34 versus equimolar PEDF-44, retinal cultures
  more neuritogenic than PEDF-44 in vitro: 52%
[1]; PEDF-34 versus untreated
  fold longer neurites than in untreated cultures: 6.3 fold
  fold more βIII-tubulin+ neurons with neurites than in untreated cultures: 21 fold
[1]; statement in discussion
  retinal neuron/RGC neuritogenesis/axogenesis compared to untreated controls: Five-fold more
[2]; 1.88 nM dose (peak), 0.5 h
  level of total PEDF in the retina: 0.18 ± 0.007 nM
[2]; 1.88 nM dose (peak), 0.5 h, 6 animals (12 eyes)
  level of total PEDF in the vitreous: 0.42 ± 0.01 nM
[2]; 4 h
  peak level of total PEDF in the retina: 0.24 ± 0.005 nM
  peak level of total PEDF in the vitreous: 0.39 ± 0.004 nM
[2]; 24 h
  peak level of total PEDF in the retina: 0.12 ± 0.002 nM
  peak level of total PEDF in the vitreous: 0.21 ± 0.004 nM
other
  time to detection in vitreous body: < 30 min
[3]
  RGC survival on increasing the dose: did not improve
